The target in one data set is T1, OAT3 (Homo sapiens, UniProt Q8TCC7).
T1 sequence (Q8TCC7 1-542): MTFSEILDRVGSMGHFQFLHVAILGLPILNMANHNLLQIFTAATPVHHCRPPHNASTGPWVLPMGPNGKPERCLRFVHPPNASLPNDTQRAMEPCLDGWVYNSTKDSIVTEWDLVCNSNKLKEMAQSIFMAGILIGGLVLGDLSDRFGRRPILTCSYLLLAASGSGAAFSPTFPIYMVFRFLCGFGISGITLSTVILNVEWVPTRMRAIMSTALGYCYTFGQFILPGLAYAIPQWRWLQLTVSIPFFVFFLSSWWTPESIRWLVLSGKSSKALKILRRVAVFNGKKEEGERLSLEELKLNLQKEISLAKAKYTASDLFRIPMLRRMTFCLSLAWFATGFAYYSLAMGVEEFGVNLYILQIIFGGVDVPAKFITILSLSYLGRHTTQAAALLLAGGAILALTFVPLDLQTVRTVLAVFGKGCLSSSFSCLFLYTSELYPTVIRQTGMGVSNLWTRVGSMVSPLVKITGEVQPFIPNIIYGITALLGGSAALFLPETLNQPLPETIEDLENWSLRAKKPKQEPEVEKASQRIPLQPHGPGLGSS
Briefly: OAT3 transport inhibition in HEK293-OAT3 cells. The class given is in vitro ADME. Set-up: host or cells: HEK293 (TransportoCells). The note with it: 0.1 μM probe substrate, HBSS pH 7.4, β-amanitin 0.01–250 μM (methods), n = 3, read-out: IC50, OAT3-mediated [3H]estrone-3-sulfate uptake. How it is done:
(§1) β-amanitin inhibition (IC50 values) of OCT1, OCT2, MATE2-K, OAT1, OAT3, Na^+/taurocholate co-transporting polypeptide (NTCP), OATP1B1, OATP1B3, P-glycoprotein (P-gp), and breast-cancer-resistant protein (BCRP) transport activities were assessed in HEK293 cells overexpressing individual transporters (TransportoCells™, Corning), LLC-PK1-P-gp (Corning), or LLC-PK1-BCRP (obtained from Dr. A.H. Schinkel, Netherlands Cancer Institute; Amsterdam, The Netherlands), as previously reported. Each incubation mixture was prepared to a final volume of 100 μL HBSS (pH 7.4) containing 0.1 μM probe substrates ([^3H]methyl-4-phenylpyridinium for OCT1 and OCT2, [^14C]metformin for MATE2-K, [^3H]p-aminohippuric acid for OAT1, [^3H]estrone-3-sulfate for OAT3, OATP1B1 and BCRP, [^3H]taurocholate for NTCP, [^3H]17-β-D-estradiol-glucuronide for OATP1B3, [^3H]digoxin for P-gp) and various concentrations of β-amanitin (0.01–250 μM), as previously described.

Another data set has as its target MATE2-K (Homo sapiens, UniProt Q86VL8). The data set is described as follows: MATE2-K transport inhibition in HEK293-MATE2-K cells. On the set-up: host or cells: HEK293 (TransportoCells). The class given is in vitro ADME. As to conditions: 0.1 μM probe substrate, HBSS pH 7.4, β-amanitin 0.01–250 μM (methods), n = 3, read-out: IC50, MATE2-K-mediated [14C]metformin uptake. How it is done: as §1

Data set [1] in a line: Toxicokinetics after oral administration in mice. It is filed as in vivo. As to conditions: male ICR mice; for bioavailability / Tmax / Cmax / half-life / AUC(0-inf) / AUC(0-t): mouse; for bioavailability / Tmax / Cmax / AUC(0-inf) / AUC(0-t): plasma; for bioavailability: (dose normalized AUCPO/dose normalized AUCIV) × 100, mean ± SD, read-out: F (oral bioavailability); for Tmax: median with range in parentheses; for Cmax: fasted; for Cmax / AUC(0-inf) / AUC(0-t): LC-HRMS; for Cmax / half-life / AUC(0-inf) / AUC(0-t): mean ± SD; for half-life: plasma elimination half-life; for AUC(0-inf) / AUC(0-t): non-compartmental. The method, then:
The Institutional Animal Care and Use Committee of the Catholic University of Korea (approval number, CUK-IACUC-2021-004; approval date, 21 March 2021) approved the study protocol. Male ICR mice (8 weeks of age, 27.4 ± 2.3 g) were purchased from Orient Bio Inc. (Seongnam, Korea). Mice were kept in plastic cages with unlimited access to a standard mouse diet (Orient Bio) and water before the experiments. For oral administration, mice were fasted for at least 12 h but allowed free access to water.
β-amanitin was dissolved in water and administered to mice by gavage at doses of 2 (n = 7), 5 (n = 9), and 10 (n = 7) mg/kg. Blood samples (approximately 15 μL) were collected from the retro-orbital plexus under light anesthesia with isoflurane at 0.033, 0.083, 0.166, 0.25, 0.5, 0.75, 1, 1.5, 2, 4, 6, and 8 h after drug administration. Plasma samples (5 μL each) were harvested by centrifugation at 13,000× g for 3 min at 4 °C and stored at −80 °C until analysis.
Concentrations of β-amanitin in biological samples were evaluated following our previous methodology. The standard calibration curves for β-amanitin in mouse plasma ranged from 0.5 to 500 ng/mL and were linear, with a correlation coefficient of 0.9952. The inter- and intra-day accuracy and precision fell within the acceptance criteria (3.1–14.6% of coefficients of variation (CVs) and 92.5–115.0% of accuracy). The extraction recovery and matrix effect of this analytical method were 82.8–88.9% and 93.0–98.6%.
An aliquot (5 μL) of plasma sample was mixed with 15 μL of 4′-hydroxydiclofenac (internal standard (IS), 5 ng/mL) in methanol and vortexed for 2 min. The mixture was centrifuged at 13,000× g at 4 °C for 5 min, and the supernatant was then transferred to an autosampler vial. An aliquot (5 μL) was injected into the LC-HRMS system for analysis.
The toxicokinetic parameters of β-amanitin were analyzed by non-compartmental analyses (WinNonlin, Pharsight; Mountain View, CA, USA) (Table 1). Data were expressed as mean ± standard deviations (SD). Comparisons of data between groups were performed using one-way ANOVA or Student t-test. Values of p < 0.05 were considered statistically significant.

Setting [2] is: oral 2, 5 and 10 mg/kg, range of the dose-group means.

The values below come from publication PMC9030691, “Toxicokinetics of β-Amanitin in Mice and In Vitro Drug–Drug Interaction Potential” (Pharmaceutics, 2022).

Where two headings read alike, the source gives them in different places.

MATE2-K, sequence (Q86VL8 1-566 isoform Q86VL8-3): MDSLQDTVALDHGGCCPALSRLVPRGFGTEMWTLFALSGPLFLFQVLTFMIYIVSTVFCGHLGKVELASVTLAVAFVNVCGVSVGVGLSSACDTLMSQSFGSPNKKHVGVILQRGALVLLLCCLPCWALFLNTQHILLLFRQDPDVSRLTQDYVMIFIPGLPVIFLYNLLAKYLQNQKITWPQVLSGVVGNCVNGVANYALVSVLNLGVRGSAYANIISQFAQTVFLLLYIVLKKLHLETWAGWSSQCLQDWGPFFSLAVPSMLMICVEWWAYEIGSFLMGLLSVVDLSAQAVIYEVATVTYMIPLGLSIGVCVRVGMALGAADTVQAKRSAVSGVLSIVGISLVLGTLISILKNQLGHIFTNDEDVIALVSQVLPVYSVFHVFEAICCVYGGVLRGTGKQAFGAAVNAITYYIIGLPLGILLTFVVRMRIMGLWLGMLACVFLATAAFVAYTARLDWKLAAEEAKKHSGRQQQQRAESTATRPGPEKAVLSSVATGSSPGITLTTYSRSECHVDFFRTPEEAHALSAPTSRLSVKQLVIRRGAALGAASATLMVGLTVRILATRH

On to `CC[C@H](C)[C@@H]1NC(=O)CNC(=O)[C@@H]2Cc3c([nH]c4cc(O)ccc34)[S@+]([O-])C[C@H](NC(=O)CNC1=O)C(=O)N[C@@H](CC(=O)O)C(=O)N1C[C@H](O)C[C@H]1C(=O)N[C@@H]([C@@H](C)[C@@H](O)CO)C(=O)N2` [β-amanitin], for which the IC50 at OAT3 is 37.4 µM. The IC50 on MATE2-K is 2.1 µM. In addition, the “Tmax, range over the oral doses” value in data set [1] (oral 2, 5 and 10 mg/kg, range of individual values) is recorded as 10~120 min. In data set [1] (setting [2]), the “Absolute (oral) bioavailability, range over the oral doses” value was 7.3–9.4% and the “t1/2, range over the oral doses” value is given as 105.0~132.0 min. Further, in data set [1] (oral gavage 2 mg/kg, n = 7), the bioavailability is 9.4 ± 4.9%, the Tmax was 1 h, the half-life amounted to 1.75 ± 1.57 h and the AUC(0-inf) was 191 ng·h/mL. The same compound gave an AUC(0-t) in data set [1] (oral gavage 2 mg/kg, n = 7) of 181 ng·h/mL. Moreover, in data set [1] (oral gavage 5 mg/kg, n = 9), the bioavailability worked out at 8.1 ± 4.3%, the Tmax was found to be 1.5 h, the half-life is 2.2 ± 0.838 h and the AUC(0-inf) is 438 ng·h/mL. Further, the AUC(0-t) in data set [1] (oral gavage 5 mg/kg, n = 9) is 391 ng·h/mL. In data set [1] (oral gavage 10 mg/kg, n = 7), the bioavailability was determined as 7.3 ± 3.1%, the Tmax turned out to be 1 h, the half-life was 2.17 ± 1.31 h and the AUC(0-inf) is 810 ng·h/mL. The AUC(0-t) in data set [1] (oral gavage 10 mg/kg, n = 7) is 698 ng·h/mL. The compound also registered a Cmax in data set [1] (oral gavage 2 mg/kg in water, n = 7) of 67.1 ± 18.6 ng/mL. The concentration in data set [1] (oral gavage 5 mg/kg in water, n = 9) peaked (Cmax) at 140 ± 116 ng/mL. Besides, the Cmax in data set [1] (oral gavage 10 mg/kg in water, n = 7) worked out at 360 ± 385 ng/mL.
